Source: patent publication US8404728B2 (priority 2009, dated 2013)
Where a name gives a salt, the structure may show the parent alone. Read-outs that look alike come from different tables or passages of the source.

Legend:
[1] = target: BoNTAe (Clostridium botulinum, UniProt P0DPI0); assay: biochemical; conditions: for inhibition at 1 µM: read-out: % inhibition of BoNTAe; for inhibition at 20 µM: inhibitor concentration 20 μM
[2] = target: botulinum neurotoxin serotype A (Clostridium botulinum, UniProt P0DPI0); set-up: species or system Balb/c mice; conditions: mouse, in vivo, ip
Sequence of botulinum neurotoxin serotype A (P0DPI0 whole entry, looked up): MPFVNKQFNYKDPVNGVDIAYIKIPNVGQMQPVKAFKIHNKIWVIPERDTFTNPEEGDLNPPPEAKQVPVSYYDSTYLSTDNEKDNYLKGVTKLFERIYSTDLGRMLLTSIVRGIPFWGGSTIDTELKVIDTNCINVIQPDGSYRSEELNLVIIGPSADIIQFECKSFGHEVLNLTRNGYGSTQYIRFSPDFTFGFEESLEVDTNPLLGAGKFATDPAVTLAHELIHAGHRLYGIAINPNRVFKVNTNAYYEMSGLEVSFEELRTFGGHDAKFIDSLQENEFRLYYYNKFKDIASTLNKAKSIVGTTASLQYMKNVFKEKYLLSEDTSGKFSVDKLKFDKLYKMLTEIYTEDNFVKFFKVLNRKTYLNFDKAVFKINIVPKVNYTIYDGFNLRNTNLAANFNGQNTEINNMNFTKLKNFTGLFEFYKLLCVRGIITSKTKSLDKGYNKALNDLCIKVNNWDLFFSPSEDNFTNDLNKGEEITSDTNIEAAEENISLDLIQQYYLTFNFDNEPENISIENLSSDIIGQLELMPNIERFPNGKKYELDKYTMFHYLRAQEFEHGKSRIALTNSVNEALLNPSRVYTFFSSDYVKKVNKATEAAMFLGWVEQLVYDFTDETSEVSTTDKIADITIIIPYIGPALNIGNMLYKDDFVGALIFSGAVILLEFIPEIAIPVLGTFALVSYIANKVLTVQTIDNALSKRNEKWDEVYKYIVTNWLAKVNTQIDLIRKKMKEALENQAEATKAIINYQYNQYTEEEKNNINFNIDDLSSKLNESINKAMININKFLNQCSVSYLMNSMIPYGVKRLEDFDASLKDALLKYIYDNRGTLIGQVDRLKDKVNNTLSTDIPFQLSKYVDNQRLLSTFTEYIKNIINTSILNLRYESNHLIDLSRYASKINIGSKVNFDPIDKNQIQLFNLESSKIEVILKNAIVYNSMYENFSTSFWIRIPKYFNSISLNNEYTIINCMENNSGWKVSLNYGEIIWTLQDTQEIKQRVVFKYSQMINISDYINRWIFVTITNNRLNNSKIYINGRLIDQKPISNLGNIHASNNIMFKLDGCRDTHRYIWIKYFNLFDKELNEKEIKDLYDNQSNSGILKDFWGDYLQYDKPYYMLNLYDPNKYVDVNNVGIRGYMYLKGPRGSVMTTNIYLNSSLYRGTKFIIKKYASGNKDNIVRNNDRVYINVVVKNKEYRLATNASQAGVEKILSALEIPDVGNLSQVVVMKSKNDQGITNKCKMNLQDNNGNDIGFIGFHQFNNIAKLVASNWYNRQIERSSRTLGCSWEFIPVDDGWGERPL

[3] = mouse, in vivo, ip, 2 mg/kg; for AUClast / Cmax / Vd: Balb/c
[4] = in vivo; conditions: Balb/c, mouse, ip, 2 mg/kg

Sequence of BoNTAe (P0DPI0 2-448 limits assumed): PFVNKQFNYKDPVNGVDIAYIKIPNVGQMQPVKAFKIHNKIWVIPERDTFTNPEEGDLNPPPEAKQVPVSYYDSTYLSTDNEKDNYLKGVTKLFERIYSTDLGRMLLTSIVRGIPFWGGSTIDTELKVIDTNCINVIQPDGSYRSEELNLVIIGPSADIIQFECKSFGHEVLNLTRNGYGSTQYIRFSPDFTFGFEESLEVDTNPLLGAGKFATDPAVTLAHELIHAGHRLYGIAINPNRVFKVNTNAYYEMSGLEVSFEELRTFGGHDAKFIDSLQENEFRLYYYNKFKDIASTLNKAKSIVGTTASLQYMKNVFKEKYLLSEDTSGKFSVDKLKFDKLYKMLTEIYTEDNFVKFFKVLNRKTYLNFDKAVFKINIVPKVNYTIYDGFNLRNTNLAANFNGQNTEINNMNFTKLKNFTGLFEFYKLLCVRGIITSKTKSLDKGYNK

Compound: NCCCCCCCCCCN(CCCCCCCCCCN)C(=O)c1ccc(-c2cc3ccc(C(=O)c4cc(CC(=O)NO)c(-c5cccc(O)c5)s4)cc3n2CCCCN)cc1 [Inhibitor E1c, 4-(1-(4-aminobutyl)-6-(4-(2-(hydroxyamino)-2-oxoethyl)-5-(3-hydroxyphenyl)thiophene-2-carbonyl)-1H-indol-2-yl)-N,N-bis(10-aminodecyl)benzamide]
- Ki [1]: 0.26 µM
- inhibition at 1 µM ([1]; inhibitor concentration 1 μM): 75 ± 1%

Compound: NCCCCCCCCCCCN(CCCCCCCCCCCN)C(=O)c1ccc(-c2cc3ccc(C(=O)c4cc(CC(=O)NO)c(-c5cccc(O)c5)s4)cc3n2CCCCN)cc1 [Inhibitor E1d]
- Ki [1]: 0.34 µM
- inhibition at 1 µM [1]: 68 ± 1%

Compound: NCCCCCCCCCCCCN(CCCCCCCCCCCCN)C(=O)c1ccc(-c2cc3ccc(C(=O)c4cc(CC(=O)NO)c(-c5cccc(O)c5)s4)cc3n2CCCCN)cc1 [Inhibitor E1e]
- Ki [1]: 0.36 µM
- inhibition at 1 µM [1]: 49%

Compound: NCCCCCCN(CCCCCCN)C(=O)c1ccc(-c2cc3ccc(C(=NO)c4cc(CC(=O)NO)c(-c5cccc(O)c5)s4)cc3n2CCCCN)cc1 [Inhibitor E1f, 4-(1-(4-aminobutyl)-6-((4-(2-(hydroxyamino)-2-oxoethyl)-5-(3-hydroxyphenyl)thiophen-2-yl)(hydroxyimino)methyl)-1H-indol-2-yl)-N,N-bis(6-aminohexyl)benzamide]
- inhibition at 1 µM ([1]; inhibitor concentration 1 μM): 47 ± 1%

Compound: NCCCCCN(CCCCCN)C(=O)c1ccc(-c2cc3ccc(C(=NO)c4cc(CC(=O)NO)c(-c5cccc(O)c5)s4)cc3n2CCCCN)cc1 [Inhibitor E1g]
- inhibition at 1 µM [1]: 48%

Compound: NCCCCCCCCN(CCCCCCCCN)C(=O)c1ccc(-c2cc3ccc(C(=NO)c4cc(CC(=O)NO)c(-c5cccc(O)c5)s4)cc3n2CCCCN)cc1 [Inhibitor E1h]
- inhibition at 1 µM [1]: 60 ± 1%

Compound: NCCCCn1c(-c2ccccc2)c(F)c2ccc(C(=O)c3cc(CC(=O)NO)c(-c4ccc(O)cc4)s3)cc21 [Inhibitor E2, 2-(5-(1-(4-Aminobutyl)-3-fluoro-2-phenyl-1H-indole-6-carbonyl)-2-(4-hydroxyphenyl)thiophen-3-yl)-N-hydroxyacetamide]
- proportion of survivors [2]: significantly (p<0.05) increased the proportion of survivors
- AUClast [3]: 1386.4 ng·h/mL
- Cmax [3]: 738.4 ng/mL
- Vd [3]: 14.95 L/kg
- T1/2 [3]: 6.5
- Tmax [4]: 30 min
- inhibition at 20 µM [1]: 82 ± 6%

Compound: NCCCCn1c(-c2ccccc2)c(F)c2ccc(C(=O)c3cc(CC(=O)NO)c(-c4cccc(N)c4)s3)cc21 [Inhibitor E3, 2-(5-(1-(4-aminobutyl)-3-fluoro-2-phenyl-1H-indole-6-carbonyl)-2-(3-aminophenyl)thiophen-3-yl)-N-hydroxyacetamide]
- proportion of survivors [2]: significantly (p<0.05) increased the proportion of survivors
- AUClast [3]: 1385.93 ng·h/mL
- Cmax [3]: 255.99 ng/mL
- Vd [3]: 12.84 L/kg
- T1/2 [3]: 6.25
- Tmax [4]: 60 min
- inhibition at 20 µM [1]: 47 ± 1%

Compound: NCCCCCCCN(CCCCCCCN)C(=O)c1cc(CCC(=O)NO)c(CCC(O)(c2ccccc2)c2ccccc2)n1Cc1ccccc1 [Inhibitor E4]
- Ki [1]: 0.76 µM
- inhibition at 1 µM ([1]; inhibitor concentration 1 μM): 52 ± 1%

Compound: NCCCCCCCN(CCCCCCCN)C(=O)c1cc(CCC(=O)NO)c(CCC(CO)(c2ccccc2)c2ccccc2)n1Cc1ccccc1 [Inhibitor E4b, N,N-Bis(7-aminoheptyl)-1-benzyl-5-(4-hydroxy-3,3-diphenylbutyl)-4-(3-(hydroxyamino)-3-oxopropyl)-1H-pyrrole-2-carboxamide]
- Ki [1]: 0.21 µM
- inhibition at 1 µM ([1]; inhibitor concentration 1 μM): 79 ± 1%

Compound: O=C(CCc1cc(C(=O)Nc2cc(CCCCCCN3C(=O)c4ccccc4C3=O)c(OCCCCCCN3C(=O)c4ccccc4C3=O)c(CCCCCCN3C(=O)c4ccccc4C3=O)c2)n(Cc2ccccc2)c1C#CC(O)(c1ccccc1)c1ccccc1)NO [Inhibitor E6, 1-Benzyl-N-(3,5-bis(6-(1,3-dioxoisoindolin-2-yl)hexyl)-4-(6-(1,3-dioxoisoindolin-2-yl)hexyloxy)phenyl)-5-(3-hydroxy-3,3-diphenylprop-1-ynyl)-4-(3-(hydroxyamino)-3-oxopropyl)-1H-pyrrole-2-carboxamide trifluoroacetic acid salt]
- inhibition at 1 µM ([1]; inhibitor concentration 1 μM): 50 ± 2%

Compound: O=C(CCc1cc(C(=O)Nc2cc(CCCCCCN3C(=O)c4ccccc4C3=O)c(OCCCCCCCN3C(=O)c4ccccc4C3=O)c(CCCCCCN3C(=O)c4ccccc4C3=O)c2)n(Cc2ccccc2)c1C#CC(O)(c1ccccc1)c1ccccc1)NO [Inhibitor E6b, 1-Benzyl-N-(3,5-bis(6-(1,3-dioxoisoindolin-2-yl)hexyl)-4-(7-(1,3-dioxoisoindolin-2-yl)heptyloxy)phenyl)-5-(3-hydroxy-3,3-diphenylprop-1-ynyl)-4-(3-(hydroxyamino)-3-oxopropyl)-1H-pyrrole-2-carboxamide trifluoroacetic acid salt]
- inhibition at 1 µM ([1]; inhibitor concentration 1 μM): 59 ± 2%

Compound: NCCCCCCCCCOc1c(CCCCCCN)cc(NC(=O)c2cc(CCC(=O)NO)c(CCC(N)(c3ccccc3)c3ccccc3)n2Cc2ccccc2)cc1CCCCCCN [Inhibitor E6c]
- inhibition at 1 µM [1]: 55 ± 2%
